From patent US20100105772A1, “USE OF NOVEL LIPID MEDIATORS TO INHIBIT ANGIOGENESIS” (priority 2008, published 2010)

Assays:
[1] = system: TNF-α mRNA; test: Real-time PCR of TNF-α mRNA in suture-induced inflamed corneas; format: in vivo, mice; settings: vs vehicle
Description: (§1) FIG. 3. Lipoxin Reduces Cytokine mRNA Expressions in Inflamed Corneas. ATLa or vehicle was subconjunctivally injected at 0 h and 48 h after suture placement. For each compound treatment, corneas were harvested from a group of mice at 24 h, and another group at 72 h after suture placement, as well as from normal untreated control corneas (6 corneas per group). mRNA levels of inflammatory cytokines (including IL-1α, IL-1β, and TNF-α) were determined by real-time PCR. Data were normalized to GAPDH mRNA and values were expressed as the fold change over normal control corneas. Results represent the mean (±SEM) of three samples per group (each sample consisted of 2 pooled corneas), and data are representative of two independent experiments (*P<0.05, **P<0.001 vs vehicle-treated group, t-test). […]
(§2) BALB/c mice were randomized to receive ATLa, or vehicle (normal saline) by subconjunctival injection in a masked fashion after suture or hydron pellet placement. […] ATLa was synthesized as described previously.^20 The physical properties were monitored routinely via LC/MS/MS matching the reported biological and physical properties prior to analysis in present experiments. […]

[2] = system: EC; settings: cited from earlier work
[3] = system: mouse IL-1 beta; test: ELISA of IL-1 beta protein in homogenates of suture-induced inflamed corneas; format: in vivo, mice
Description: FIG. 7. ATLa Regulates IL-1β. Mice were treated at Oh and 48 h after suture-placement with ATLa or vehicle. Whole corneas were excised at 72 h, and subsequently freeze-thawed 3 times. Cornea was then homogenized using a pellet pestile motor with additional protease inhibitors. Homogenates were centrifuged at 12,000 rpm for 5 minutes and the supernatant was assayed for mouse IL-1 beta via ELISA (eBioscience, USA) according to the manufacturer's instructions.
The standard model for induction of inflammatory corneal NV is associated with development of intrastromal vessels in close association with a mixed-cell (primarily neutrophilic) infiltrate.^14,15 Three interrupted sutures (11-0 nylon, Sharpoint; Vanguard, Houston, Tex.) were placed intrastromally with two stromal incursions extending over 120° of the corneal circumference each to induce inflammatory corneal NV, which is also associated with significant LA, as described previously.^14 The corneas were followed by slit-lamp biomicroscopy for corneal NV development. […]
(§3) BALB/c mice were randomized to receive ATLa, or vehicle (normal saline) by subconjunctival injection in a masked fashion after suture or hydron pellet placement. […] ATLa was synthesized as described previously.^20 The physical properties were monitored routinely via LC/MS/MS matching the reported biological and physical properties prior to analysis in present experiments.

[4] = system: VEGF-A mRNA; test: Real-time PCR of VEGF-A mRNA in suture-induced inflamed corneas; format: in vivo, mice; settings: 24 h and 72 h after suture placement; vs vehicle-treated group
Description: (§4) FIG. 4. The Impact of Lipoxin on the mRNA Expression of VEGFs and VEGFRs in Inflamed Corneas. ATLa or vehicle was subconjunctivally injected at 0 h and 48 h after suture placement. For each compound treatment, corneas were harvested from a group of mice at 24 h, and another group at 72 h after suture placement, as well as from normal untreated control corneas (6 corneas per group). (A) VEGF ligand species (VEGF-A, VEGF-C, VEGF-D) and (B) VEGFRs (VEGFR2 and VEGFR3) were tested by real-time PCR and normalized to GAPDH mRNA. Values are expressed as fold change over the normal control cornea. Results represent the mean (±SEM) of three samples per group (each sample consisted of 2 pooled corneas), and the data are representative of two independent experiments (*P<0.05, **P<0.001, ***P<0.0005, vs vehicle-treated group, t-test). […]
as §2

[5] = system: macrophage phagocytosis (e.g. of apoptotic neutrophils); settings: reference 26; cited from earlier work
[6] = system: IL-1α mRNA; test: Real-time PCR of IL-1α mRNA in suture-induced inflamed corneas; format: in vivo, mice; settings: 24 h and 72 h after suture placement; vs vehicle
Description: as §1, §2

[7] = system: suture-induced corneal NV (HA and LA); test: Suture-induced inflammatory corneal angiogenesis (slit-lamp NV score, blood and lymphatic vessel density); format: in vivo, mice
Description: FIG. 5. Suture-induced Corneal HA is Reduced with Lipoxin. ATLa or vehicle was subconjunctivally injected every 48 h from 0 to 14 days after suture placement. A. In a masked fashion, corneal NV was scored biomicroscopically with a slit-lamp using a grid system. Values are expressed as the mean (±SEM) of 6 corneas. B. Whole corneal tissues were harvested on day 14 and double-stained with anti-CD31 (green) and anti-LYVE-1 (red) for epifluorescence microscopy (20× magnification). C. The density of blood vessels (CD31^high/LYVE-1^−) or lymphatic vessels (CD31^lowLYVE-1^high) covering the cornea was analyzed. Values are expressed as the mean (±SEM) of 6 corneas of per treatment group (**P<0.001 vs vehicle-treated group, t-test), and the data are representative of two independent experiments. […]
as §3
(§5) Full thickness corneal tissue or 8 μm-frozen sections were fixed in acetone for 15 minutes at room temperature. […] Finally, the samples were covered with mounting medium (Vector Laboratories, Burlingame, Calif.) and analyzed by epifluorescence microscopy (Eclipse E800; Nikon, Tokyo, Japan). […]
To quantify corneal angiogenesis, digital pictures of corneal flat-mounts were taken using an image analysis system (Spot Image Analysis, Diagnostic Instruments, Sterling Heights, Mich.). The areas covered by CD31^high/LYVE-1^−-vessels (blood vessels) or CD31^lowLYVE-1^high vessels (lymphatics) were measured morphometrically using NIH Image J software (version 1.34s; http://rsb.info.nih.gov/ij). […]

[8] = system: macrophages; test: Macrophage infiltration in suture-induced inflamed corneas (F4/80 staining of cross-sections); format: in vivo, mice; settings: 72 h after suture placement
Description: ATLa or vehicle was subconjunctivally injected at 0 h and 48 h after suture placement. For each compound treatment, eyes were enucleated from a group of mice at 24 h, and another group at 72 h after suture placement (3 eyes per group). Cross-sections were stained with anti-neutrophil (NIMP-R14) or anti-macrophage (F4/80) Ab, and 12 sections were used to enumerate the respective leukocyte populations. Results represent the mean (±SEM) of 3 eyes per group (*P<0.05, **P<0.001 vs vehicle-treated group, t-test), and data are representative of two independent experiments. […]
as §3, §5

[9] = system: VEGF-D mRNA; test: Real-time PCR of VEGF-D mRNA in suture-induced inflamed corneas; format: in vivo, mice; settings: after suture placement; vs vehicle-treated controls
Description: as §4, §2

[10] = system: neutrophils; test: Neutrophil infiltration in suture-induced inflamed corneas (NIMP-R14 staining of cross-sections); format: in vivo, mice; settings: for neutrophils per section: n=3, mean±SEM
Description: ATLa or vehicle was subconjunctivally injected at 0 h and 48 h after suture placement. For each compound treatment, eyes were enucleated from a group of mice at 24 h, and another group at 72 h after suture placement (3 eyes per group). Cross-sections were stained with anti-neutrophil (NIMP-R14) or anti-macrophage (F4/80) Ab, and 12 sections were used to enumerate the respective leukocyte populations. Results represent the mean (±SEM) of 3 eyes per group (*P<0.05, **P<0.001 vs vehicle-treated group, t-test), and data are representative of two independent experiments.
The standard model for induction of inflammatory corneal NV is associated with development of intrastromal vessels in close association with a mixed-cell (primarily neutrophilic) infiltrate.^14,15 Three interrupted sutures (11-0 nylon, Sharpoint; Vanguard, Houston, Tex.) were placed intrastromally with two stromal incursions extending over 120° of the corneal circumference each to induce inflammatory corneal NV, which is also associated with significant LA, as described previously.^14 The corneas were followed by slit-lamp biomicroscopy for corneal NV development. NV was graded between 0 and 3, with increments of 0.5, using a grid system per each corneal quadrant based on the centripetal extent of the neovascular branches from the limbus. Scores for each quadrant then summed to derive the NV index (range 0 to 12) for each eye, as previously described.^14
as §3, §5

[11] = system: VEGF-A-induced corneal HA and LA; test: Corneal micropocket assay with VEGF-A pellets (vessel density); format: in vivo, mice; settings: VEGF-A micropellet, day 7
Description: (§6) FIG. 6. ATLa Regulate IL-1β- and VEGF-A-induced Corneal HA and LA. Hydron pellets containing IL-1β or VEGF-A were implanted into the corneas on day 0. ATLa or vehicle was subconjunctivally injected every 48 h from 0 to 7 days after pellet implantation (4 corneas per treatment, for each pellet-type). A. Slit-lamp examination was performed on day 7 and representative images are shown. B. The density of blood vessels (CD31^high/LYVE-1^−) or lymphatic vessels (CD31^lowLYVE-1^high) covering each cornea was analyzed. Values are expressed as the mean (±SEM) of each treatment group (4 corneas per group) and the data are representative of two independent experiments (*P<0.05 vs vehicle-treated group, t-test).
(§7) The corneal micropocket assay in mice and quantification of the resultant NV has been described previously.^16,17 In brief, 0.3 μl of hydron pellets (IFN Sciences, New Brunswick, N.J.) containing 30 ng of murine IL-1β (R&D Systems, Minneapolis, Minn.) or 200 ng of VEGF-A (gift from BRB Preclinical Repository, National Cancer Institute) were prepared and implanted into the corneal stroma of male BALB/c mice. After 7 days the animals were sacrificed and the corneas were harvested for quantitative analysis of HA and LA.
(§8) BALB/c mice were randomized to receive ATLa, or vehicle (normal saline) by subconjunctival injection in a masked fashion after suture or hydron pellet placement. […]

[12] = system: VEGFR-3 mRNA; test: Real-time PCR of VEGFR-3 mRNA in suture-induced inflamed corneas; format: in vivo, mice; settings: after suture placement; vs vehicle-treated controls
Description: as §4, §2

[13] = system: IL-1β-induced corneal HA and LA; test: Corneal micropocket assay with IL-1β pellets (vessel density); format: in vivo, mice; settings: IL-1β micropellet, day 7
Description: as §6, §7, §8

[14] = system: IL-1β mRNA; test: Real-time PCR of IL-1β mRNA in suture-induced inflamed corneas; format: in vivo, mice; settings: 24 h and 72 h after suture placement; vs vehicle-treated controls
Description: as §1, §2

[15] = stable analog of LXA4/ATL; reference 36; cited from earlier work
[16] = system: VEGF-C mRNA; test: Real-time PCR of VEGF-C mRNA in suture-induced inflamed corneas; format: in vivo, mice; settings: 24 h and 72 h after suture placement; vs vehicle-treated group
Description: as §4, §2

[17] = system: VEGFR-2 mRNA; test: Real-time PCR of VEGFR-2 mRNA in suture-induced inflamed corneas; format: in vivo, mice; settings: 24 h and 72 h after suture placement; vs vehicle-treated group
Description: as §4, §2

COC(=O)CCC[C@H](O)[C@H](O)/C=C/C=C/C=C\C=C\[C@H](O)COc1ccc(F)cc1 [ATLa, 15-epi-16-(para-fluoro)-phenoxy-lipoxin A4 methyl ester]
increase in TNF-α expression (mRNA) ([1]; 24 h after suture placement): significantly suppressed
increase in TNF-α expression (mRNA) ([1]; 72 h after suture placement): not at 72 h
EC adhesion ([2]; VEGF-A-induced angiogenesis, references 37, 38): inhibition
VEGF-A-induced EC proliferation ([2]; reference 39): suppression
IL-1 beta in corneas ([3]; ELISA of corneal homogenate supernatant, 72 h, treated at 0 h and 48 h, n=4): 21.3 ± 0.8 pg/mL
decrease in IL-1β protein level ([3]; ELISA, 72 h after suture placement, vs vehicle-treated group): 70%
VEGF-A mRNA expression [4]: lower
macrophage phagocytosis [5]: increase
expression of IL-1α (mRNA) [6]: not significantly altered
angiogenic response (growth of corneal neovessels, slit lamp biomicroscopy) ([7]; 2-week time course, injection every 48 h, vs vehicle control): significant suppression
BV density (CD31high/LYVE-1−) ([7]; day 14 after suture placement, n=6, mean±SEM): 8.26±0.63%
density of lymphatic vessels (CD31low LYVE-1high) ([7]; day 14 after suture placement, vs vehicle controls): not observed
macrophages per section ([8]; n=3, mean±SEM): 46±5 cells/section
reduction in macrophage infiltration ([8]; vs vehicle control group): 25-40%
VEGF-D mRNA expression [9]: not significantly altered
inhibition of neutrophils recruitment into the inflamed corneas ([10]; 24 and 72 h after suture placement, 100 ng/10 μl subconjunctival at 0 h and 48 h, vs vehicle): ~30%
neutrophils per section ([10]; 24 h after suture placement): 53±1 cells/section
neutrophils per section ([10]; 72 h after suture placement): 34±5 cells/section
BV density ([11]; n=4, mean±SEM): 5.9±0.4%
LA stimulated by VEGF-A ([11]; vs vehicle): no significant reduction
VEGFR-3 mRNA expression [12]: not significantly altered
BV density ([13]; n=4, mean±SEM): 16.1±3.0%
LA stimulated by IL-1β ([13]; vs vehicle): no significant reduction
reduction in the increase of IL-1β expression levels (mRNA) [14]: more than 50%
local inactivation (stability) [15]: resists local inactivation
VEGF-C mRNA expression [16]: lower
VEGFR-2 mRNA expression [17]: lower
